The experiment deals with T1, Human RORγ Ligand Binding Domain (RORγ-LBD) (Homo sapiens, UniProt P51449).
T1 construct: made in house; host or cells: E. coli BL21(DE3), modified pET21a
T1 sequence (P51449 263-518): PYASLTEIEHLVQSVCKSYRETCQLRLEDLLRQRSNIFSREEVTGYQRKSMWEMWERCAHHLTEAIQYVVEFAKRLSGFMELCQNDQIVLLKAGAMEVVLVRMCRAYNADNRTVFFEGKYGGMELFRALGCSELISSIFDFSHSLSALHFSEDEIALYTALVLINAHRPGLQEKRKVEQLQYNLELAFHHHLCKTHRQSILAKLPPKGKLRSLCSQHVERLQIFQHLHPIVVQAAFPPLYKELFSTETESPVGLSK
Briefly: Dual Fluorescence Energy Transfer (FRET) assay, RORγ-LBD / SRC1(2) co-activator peptide interaction. It counts as biochemical. As to conditions: mean of multiple test results if tested more than once; read-out: pIC50 in the dual FRET assay (converted). The text has this: This assay is based on the knowledge that nuclear receptors interact with cofactors (transcription factors) in a ligand dependent manner. RORγ is a typical nuclear receptor in that it has an AF2 domain in the ligand binding domain (LBD) which interacts with co-activators.
The assay measures ligand-mediated interaction of the co-activator peptide with the purified bacterial-expressed RORγ ligand binding domain (RORγ-LBD) to indirectly assess ligand binding. RORγ has a basal level of interaction with the co-activator SRC1(2) in the absence of ligand, thus it is possible to find ligands that inhibit or enhance the RORγ/SRC1(2) interaction.
Human RORγ Ligand Binding Domain (RORγ-LBD) was expressed in E.coli strain BL21(DE3) as an amino-terminal polyhistidine tagged fusion protein. DNA encoding this recombinant protein was sub-cloned into a modified pET21a expression vector (Novagen).
Approximately 50 g E. coli cell pellet was resuspended in 300 mL of lysis buffer (30 mM imidazole pH 7.0 and 150 mM NaCl). Cells were lysed by sonication and cell debris was removed by centrifugation for 30 minutes at 20,000 g at 4° C. […] The clarified lysate was loaded onto a column (XK-26) packed with ProBond Nickel Chelating resin (Invitrogen), pre-equilibrated with 30 mM imidazole pH 7.0 and 150 mM NaCl. After washing to baseline absorbance with the equilibration buffer, the column was developed with a gradient from 30 to 500 mM imidazole pH 7.0. Column fractions containing the RORγ-LBD protein were pooled and concentrated to a volume of 5 mls. The concentrated protein was loaded onto a Superdex 200 column pre-equilibrated with 20 mM Tris-CI pH 7.2 and 200 mM NaCl. The fractions containing the desired RORγ-LBD protein were pooled together.
Purified RORγ-LBD was buffer exchanged by exhaustive dialysis [3 changes of at least 20 volumes (>8000x)] against PBS [100mM NaPhosphate, pH 8 and 150mM NaC1]. […] The modified protein was distributed into aliquots, frozen on dry ice and stored at −80° C. The biotinylated RORγ-LBD was subjected to mass spectrometric analysis to reveal the extent of modification by the biotinylation reagent.
An appropriate amount of Europium labeled Streptavidin was then added to the biotinylated SRC1(2) solution in a tube to give a final concentration of 10 nM. The tube was inverted gently and incubated for 15 minutes at room temperature. Twenty-fold excess biotin from the 10 mM stock solution was added and the tube was inverted gently and incubated for 10 minutes at room temperature.
Preparation of APC labeled RORγ-LBD: biotinylated RORγ-LBD solution was prepared by adding an appropriate amount of biotinylated RORγ-LBD from the stock solution to a buffer containing 10 mM of freshly added DTT from solid to give a final concentration of 40 nM. An appropriate amount of APC labeled Streptavidin was then added to the biotinylated RORγ-LBD solution in a tube to give a final concentration of 20 nM. The tube was inverted gently and incubated for 15 minutes at room temperature. Twenty-fold excess biotin from the 10 mM stock solution was then added and the tube was inverted gently and incubated for 10 minutes at room temperature.
The reaction mixtures were incubated for 5 minutes. […] The plates were incubated for lhr and then read on ViewLux in Lance mode for EU/APC.

Where a name gives a salt, the structure may show the parent alone.

Turning to `Cc1c(CN2CCN(C(=O)C3CCCC3)[C@@H](C)C2)cc(F)cc1NC(=O)c1cccc(C#N)c1` [Example 66, (S)-3-cyano-N-(3-((4-(cyclopentanecarbonyl)-3-methylpiperazin-1-yl)methyl)-5-fluoro-2-methylphenyl)benzamide], the IC50 is roughly 39.8 nM. On to `Cc1c(CN2CCN(C(=O)C3CCCC3)[C@@H](C)C2)cc(Cl)cc1NC(=O)c1cccc(C#N)c1` [Example 193, (S)-N-(5-chloro-3-((4-(cyclopentanecarbonyl)-3-methylpiperazin-1-yl)methyl)-2-methylphenyl)-3-cyanobenzamide, trifluoroacetic acid salt], for which the IC50 was roughly 63.1 nM.
